pIC50: −log10 of the molar value. Bounds are passed on as bounds.

Broadly, the pIC50 is −log10 of the IC50, conventionally taken in molar units. As a reminder, the inhibition is the percentage by which the read-out fell short of the control.

The first assay deals with T1, progesterone receptor (PR) (Homo sapiens, UniProt P06401).
T1 sequence (P06401 1-933): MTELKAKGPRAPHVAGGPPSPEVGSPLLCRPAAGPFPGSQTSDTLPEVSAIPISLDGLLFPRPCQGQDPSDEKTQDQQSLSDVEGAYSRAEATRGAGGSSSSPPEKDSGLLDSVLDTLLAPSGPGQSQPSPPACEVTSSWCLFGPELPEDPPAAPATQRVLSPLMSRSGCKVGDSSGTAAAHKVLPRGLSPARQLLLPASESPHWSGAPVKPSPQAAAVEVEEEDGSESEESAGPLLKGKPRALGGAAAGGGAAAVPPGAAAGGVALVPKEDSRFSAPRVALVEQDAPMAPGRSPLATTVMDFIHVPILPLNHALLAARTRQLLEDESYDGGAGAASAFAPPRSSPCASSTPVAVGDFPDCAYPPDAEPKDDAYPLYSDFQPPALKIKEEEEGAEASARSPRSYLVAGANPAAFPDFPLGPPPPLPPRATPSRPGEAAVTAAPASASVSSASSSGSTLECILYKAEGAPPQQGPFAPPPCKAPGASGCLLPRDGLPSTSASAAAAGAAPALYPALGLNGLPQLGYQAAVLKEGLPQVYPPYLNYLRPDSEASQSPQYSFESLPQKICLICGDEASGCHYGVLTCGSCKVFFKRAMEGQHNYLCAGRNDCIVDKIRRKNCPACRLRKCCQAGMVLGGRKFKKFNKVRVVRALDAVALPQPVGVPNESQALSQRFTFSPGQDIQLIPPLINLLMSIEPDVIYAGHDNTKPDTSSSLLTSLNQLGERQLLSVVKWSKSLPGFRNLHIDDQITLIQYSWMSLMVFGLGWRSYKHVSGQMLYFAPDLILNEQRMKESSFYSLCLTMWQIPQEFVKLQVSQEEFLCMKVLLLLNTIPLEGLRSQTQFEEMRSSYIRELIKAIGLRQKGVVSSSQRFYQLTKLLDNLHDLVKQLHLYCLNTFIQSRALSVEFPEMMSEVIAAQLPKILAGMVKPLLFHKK
Put plainly: Radioligand binding assay for progesterone receptor (similar protocol).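 Note: radioligand binding measured with cytosol preparations containing the human progesterone receptor.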
Settings: not given
`Cc1c(NS(C)(=O)=O)cccc1N(Cc1ccccc1Br)Cc1ccccc1Br` [Example 1, N-{3-[bis(2-bromobenzyl)amino]-2-methylphenyl}methanesulfonamide] gave a negative-log IC50 (pIC50) of 6.22.

On to `Cc1c(NS(C)(=O)=O)cccc1N(Cc1ccccc1)Cc1ccc(F)cc1` [Example 9, N-{3-[benzyl(4-fluorobenzyl)amino]-2-methylphenyl}methanesulfonamide], for which the negative-log IC50 (pIC50) was 5.39. The same measure, in the same setting: next, `Cc1c(NS(C)(=O)=O)cccc1N(Cc1ccccc1)Cc1ccc(F)cc1F` [Example 10, N-{3-[benzyl(2,4-difluorobenzyl)amino]-2-methylphenyl}methanesulfonamide]: 5.64.

Regarding `Cc1c(NS(C)(=O)=O)cccc1N(Cc1ccccc1)Cc1ccc(Br)cc1` [Example 13, N-{3-[benzyl(4-bromobenzyl)amino]-2-methylphenyl}methanesulfonamide], the pIC50 is 5.73. `COc1ccc(CN(Cc2ccc(F)cc2F)c2cccc(NS(C)(=O)=O)c2C)cc1` [Example 22, N-{3-[(2,4-difluorobenzyl)(4-methoxybenzyl)amino]-2-methylphenyl}methanesulfonamide] gave a negative logarithm of the IC50 (pIC50) of 5.83.

As to `Cc1c(NS(C)(=O)=O)cccc1N(Cc1ccc(F)cc1F)Cc1ccc(F)cc1F` [Example 24, N-{3-[bis(2,4-difluorobenzyl)amino]-2-methylphenyl}methanesulfonamide], the pIC50 was 5.59. With `Cc1c(NS(C)(=O)=O)cccc1N(Cc1ccccc1)Cc1ccc(Cl)cc1` [Example 29, N-{3-[benzyl(4-chlorobenzyl)amino]-2-methylphenyl}methanesulfonamide], the pIC50 was < 5.00. Same read-out and setting: the same measure for `Cc1c(NS(C)(=O)=O)cccc1N(Cc1ccccc1)Cc1ccc(Cl)cc1Cl` [Example 32, N-{3-[benzyl(2,4-dichlorobenzyl)amino]-2-methylphenyl}methanesulfonamide]: 5.76.

`Cc1c(NS(C)(=O)=O)cccc1N(Cc1ccccc1)Cc1ccc(OCC=CBr)cc1` [Example 35, N-{3-[benzyl(4-{[3-bromo-2-propenyl]oxy}benzyl)amino]-2-methylphenyl}methanesulfonamide]: the pIC50 was < 5.00.

As for `Cc1c(NS(C)(=O)=O)cccc1N(Cc1ccc(Oc2ccc(CCC(=O)O)cc2)cc1)Cc1ccc(F)cc1F` [Example 50, N-{3-[(4-(4-(2-carboxyethyl)phenoxy)benzyl)(2,4-difluorobenzyl)amino]-2-methylphenyl}methanesulfonamide], the pIC50 was 6.72.

With `Cc1c(NS(C)(=O)=O)cccc1N(Cc1ccccc1)Cc1ccc(Oc2cccc(OCC(=O)O)c2)cc1` [Example 62, (3-{4-[(benzyl{2-methyl-3-[(methylsulfonyl)amino]phenyl}amino)methyl]phenoxy}phenoxy)acetic acid], the pIC50 was 6.61. Same read-out and setting: next, `Cc1c(NS(C)(=O)=O)cccc1N(Cc1ccc(Oc2ccc(CCC(=O)O)cc2)cc1)Cc1ccc(Cl)cc1F` [Example 86, 3-(4-{4-[((4-chloro-2-fluorobenzyl){2-methyl-3-[(methylsulfonyl)amino]phenyl}amino)methyl]phenoxy}phenyl)propanoic acid]: 6.67. The same measure, in the same setting: the same measure for `Cc1c(NS(C)(=O)=O)cccc1N(Cc1ccccc1)Cc1ccc(Oc2ccc(C(=O)O)cc2)cc1` [Example 96, 4-{4-[(benzyl{2-methyl-3-[(methylsulfonyl)amino]phenyl}amino)methyl]phenoxy}benzoic acid]: < 6.00; for `COCOc1ccc(Oc2ccc(CN(Cc3ccccc3)c3cccc(NS(C)(=O)=O)c3C)cc2)cc1` [Example 97, N-[3-(benzyl{4-[4-(methoxymethoxy)phenoxy]benzyl}amino)-2-methylphenyl]methanesulfonamide]: 6.11; for `Cc1c(NS(C)(=O)=O)cccc1N(Cc1ccc(Br)cc1)Cc1ccc(Oc2ccccc2)cc1` [Example 103, N-{3-[(4-bromobenzyl)(4-phenoxybenzyl)amino]-2-methylphenyl}methanesulfonamide]: 7.11. The molecule `Cc1c(NS(C)(=O)=O)cccc1N(Cc1ccccc1)Cc1ccc(Oc2ccc(CCCC(=O)NCC(=O)O)cc2)cc1` [Example 107, N-[4-(4-{4-[(benzyl{2-methyl-3-[(methylsulfonyl)amino]phenyl}amino)methyl]phenoxy}phenyl)butanoyl]glycine] had a negative-log IC50 (pIC50) of 6.13. For `Cc1c(NS(C)(=O)=O)cccc1N(Cc1ccccc1)Cc1ccc(Oc2cccc(O)c2)cc1` [Example 115, N-(3-{benzyl[4-(3-hydroxyphenoxy)benzyl]amino}-2-methylphenyl)methanesulfonamide], the negative logarithm of the IC50 (pIC50) was 6.78. Still for that read-out and setting: the same measure for `CSc1ccc(CN(Cc2ccc(Cl)cc2F)c2cccc(NS(C)(=O)=O)c2C)cc1` [Example 144, N-(3-{(4-chloro-2-fluorobenzyl)[4-(methylthio)benzyl]amino}-2-methylphenyl)methanesulfonamide]: 5.89.

`Cc1c(NS(C)(=O)=O)cccc1N(Cc1ccccc1F)Cc1ccc(Cl)cc1F` [Example 145, N-{3-[(4-chloro-2-fluorobenzyl)(2-fluorobenzyl)amino]-2-methylphenyl}methanesulfonamide] had a negative logarithm of the IC50 (pIC50) of 6.45.

In turn, `Cc1c(NS(C)(=O)=O)cccc1N(Cc1ccc(Oc2ccc(F)c(OCC(=O)O)c2)cc1)Cc1ccc(F)cc1F` [Example 305, (5-(4-(((2,4-difluorobenzyl)(2-methyl-3-((methylsulfonyl)amino)phenyl)amino)methyl)phenoxy)-2-fluorophenoxy)acetic acid] showed a negative logarithm of the IC50 (pIC50) of 8.05.

A further assay concerns the target T2, Human glucocorticoid receptors (Homo sapiens, UniProt P04150).
T2 construct: made in house; host or cells: Sf9 insect cells, recombinant baculovirus (BAC-TO-BAC)
T2 sequence (P04150 1-777): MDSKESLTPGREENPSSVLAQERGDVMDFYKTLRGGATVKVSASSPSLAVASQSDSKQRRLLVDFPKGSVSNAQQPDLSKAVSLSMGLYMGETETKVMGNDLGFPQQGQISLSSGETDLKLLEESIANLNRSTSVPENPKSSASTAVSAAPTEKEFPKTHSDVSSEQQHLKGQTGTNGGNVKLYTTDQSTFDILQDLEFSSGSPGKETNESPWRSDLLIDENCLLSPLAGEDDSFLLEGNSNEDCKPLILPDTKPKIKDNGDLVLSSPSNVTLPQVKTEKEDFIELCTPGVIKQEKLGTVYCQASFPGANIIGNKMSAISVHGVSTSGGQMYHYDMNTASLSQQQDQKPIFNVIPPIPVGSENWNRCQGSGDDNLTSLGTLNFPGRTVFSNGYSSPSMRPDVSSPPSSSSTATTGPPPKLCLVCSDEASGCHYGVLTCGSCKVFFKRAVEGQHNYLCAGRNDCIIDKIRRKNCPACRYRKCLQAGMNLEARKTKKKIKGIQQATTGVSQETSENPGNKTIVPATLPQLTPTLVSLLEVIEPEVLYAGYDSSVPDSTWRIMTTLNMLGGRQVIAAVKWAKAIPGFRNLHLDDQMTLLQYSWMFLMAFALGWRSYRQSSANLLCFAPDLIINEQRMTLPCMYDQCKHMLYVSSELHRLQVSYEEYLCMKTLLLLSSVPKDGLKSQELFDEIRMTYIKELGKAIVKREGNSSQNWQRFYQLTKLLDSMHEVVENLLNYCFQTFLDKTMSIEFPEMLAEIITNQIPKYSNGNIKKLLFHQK
Put plainly: Radioligand filter binding assay, displacement of 3[H]-dexamethasone from hGR. Conditions: read-out: GR Binding (% Inhibition at 1.7 μM). In outline: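 Recombinant hGR extract from baculovirus-infected Sf9 cells (final ~1 nM receptor) incubated with ³H-dexamethasone and test compound dilutions in duplicate, EDTA/phosphate pH 8 buffer with MTG, overnight (15-20 h) at +4° C. Bound label collected on PEI-treated GF/B filters and scintillation-counted; IC50 from four-parameter fit of corrected cpm.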
`Cc1c(NS(C)(=O)=O)cccc1N(Cc1ccccc1Br)Cc1ccccc1Br` [Example 1, N-{3-[bis(2-bromobenzyl)amino]-2-methylphenyl}methanesulfonamide]: the inhibition at 1.7 µM turned out to be 88.1%. On the same count and under the same terms, next, `Cc1c(NS(C)(=O)=O)cccc1N(Cc1ccc(Oc2ccc(Cl)c(OCC(=O)NCCCC(=O)O)c2)cc1)Cc1ccc(F)cc1F` [Example 318, 4-(((2-chloro-5-(4-(((2,4-difluorobenzyl)(2-methyl-3-((methylsulfonyl)amino)phenyl)amino)methyl)phenoxy)phenoxy)acetyl)amino)butanoic acid]: 95.1%; `Cc1c(NS(C)(=O)=O)cccc1N(Cc1ccccc1)Cc1ccc(Oc2ccc(Cl)c(OCCCC(=O)NCCCC(=O)O)c2)cc1` [Example 319, 4-((4-(5-(4-((benzyl(2-methyl-3-((methylsulfonyl)amino)phenyl)amino)methyl)phenoxy)-2-chlorophenoxy)butanoyl)amino)butanoic acid]: 96.4%; `Cc1c(NS(C)(=O)=O)cccc1N(Cc1ccc(Oc2ccc(Cl)c(OCCCC(=O)NCCCC(=O)O)c2)cc1)Cc1ccc(F)cc1F` [Example 320, 4-((4-(2-chloro-5-(4-(((2,4-difluorobenzyl)(2-methyl-3-((methylsulfonyl)amino)phenyl)amino)methyl)phenoxy)phenoxy)butanoyl)amino)butanoic acid]: 96.8%. The same measure, in the same setting: the same measure for `Cc1c(NS(C)(=O)=O)cccc1N(Cc1ccc(Oc2ccc(Cl)c(O[C@H](C)C(=O)O)c2)cc1)Cc1ccc(F)cc1F` [Example 321, (2R)-2-(2-chloro-5-(4-(((2,4-difluorobenzyl)(2-methyl-3-((methylsulfonyl)amino)phenyl)amino)methyl)phenoxy)phenoxy)propanoic acid]: 96.4%.

The values above are taken from patent publication US6583180B2, “Glucocorticoid receptor modulators” (Abbott Laboratories, priority 2001, dated 2003).
